# Counter-ions that a name gives are not always drawn. Like-named read-outs stand apart in the source and are kept apart here.
# Columns and labels:
# [1] = target: T1, ERK2 (Homo sapiens, UniProt P28482); assay: ERK2 HTRF (biochemical) assay
# T1 construct: purchased Jubilant Biosys
# Protocol: (§1) ERK1 and ERK2 HTRF (Biochemical) Assays
# These assays employed a homogeneous time resolved fluorescence (HTRF) technique. The compounds were serially diluted by half-log with concentrations ranging from 0.0005 to 10 uM in the assay buffer (50 mM Tris pH=7.5, 1 mM EGTA, 2 mM DTT, 10 mM MgCl2, 0.100 Tween-20) and 20 uL of substrate-ATP mix [1 uM Biotin-LC-Myelin Basic Protein (MBP) derivatized Peptide (Anaspec)-24 uM ATP (Sigma)] was added to each well of the assay plate. Then 10 uL of enzyme mix [25 nM ERK1 or ERK2 (Jubilant Biosys) in assay buffer] was added to each well. The plate was incubated at room temperature for 60 min with shaking. The HTRF mix [625 nM LANCER Ultra Europium-anti-phospho-MBP (Perkin Elmer) and 2 nM Phycolink® Streptavidin-Allophycocyanin (SA-APC) (Prozyme) in HTRF buffer (50 mM Tris-HCl pH=7.5, 100 mM NaCl, 0.1% BSA, 0.05% Tween20, 0.5 mM EDTA)] was prepared and 75 uL of this mix was added to the HTRF plate. After incubation for 60 min at room temperature, 10 uL of the reaction mixture was transferred to the HTRF assay plate and incubated for 45 min at room temperature with shaking. Plate was read using Pherastar in HTRF mode (excitation 337 nm, emission 665 & 620 nm). The IC50 values (half maximal inhibitory concentration values) were subsequently determined using a sigmoidal dose-response curve (variable slope) in GraphPad Prism® 5 software.
# [2] = target: T2, ERK1 (Homo sapiens, UniProt P27361); assay: ERK1 HTRF (biochemical) assay
# T2 construct: purchased Jubilant Biosys
# T2 sequence (P27361 whole entry): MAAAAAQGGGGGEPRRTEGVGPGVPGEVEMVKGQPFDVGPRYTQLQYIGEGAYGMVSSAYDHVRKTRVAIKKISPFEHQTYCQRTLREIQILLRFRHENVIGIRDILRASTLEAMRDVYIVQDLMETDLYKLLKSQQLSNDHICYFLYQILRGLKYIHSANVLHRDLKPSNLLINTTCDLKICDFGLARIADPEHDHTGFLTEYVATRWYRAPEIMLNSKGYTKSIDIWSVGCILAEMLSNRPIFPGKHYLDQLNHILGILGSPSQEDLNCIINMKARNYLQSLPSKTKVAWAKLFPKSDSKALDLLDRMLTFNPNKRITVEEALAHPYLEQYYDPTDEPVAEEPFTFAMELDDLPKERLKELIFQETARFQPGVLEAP
# Protocol: as §1
# These assays employed a homogeneous time resolved fluorescence (HTRF) technique. […] The plate was incubated at room temperature for 60 min with shaking. […] The IC50 values (half maximal inhibitory concentration values) were subsequently determined using a sigmoidal dose-response curve (variable slope) in GraphPad Prism® 5 software.
# [3] = system: HCT116 (colorectal carcinoma, K Ras G13D) cells; assay: Cell proliferation (Alamar Blue) assay, HCT116; type: cell-based, human; settings: Homo sapiens, HCT-116, HCT116 cells
# Outline: (§2)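 IC50 values derive from variable-slope sigmoidal fits of Alamar Blue fluorescence (540 nm excitation, 590 nm emission, 1-3 h dye incubation). Compound treatment ran 72 h at 37° C./5% CO2 over roughly 0.0005-10 uM in 3-fold steps, on cells plated at 5000/well and pre-incubated 16-24 h.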
# [4] = system: HT-29 (colorectal carcinoma, B-RafV600E) cells; assay: Cell proliferation (Alamar Blue) assay, HT-29; type: cell-based, human; settings: Homo sapiens, HT-29, HT29 cells
# Outline: as §2
# [5] = system: phosphorylation of RSK1(S380) (the downstream target of ERK1/2); assay: Phospho-RSK1(S380) ELISA assay in HT-29 cells; type: cell-based, human; settings: Homo sapiens, HT-29, HT29 cells, read-out: Mechanistic Cell Assay RSK1 Phos HT29 IC50
# Outline: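 HT-29 colorectal carcinoma cells (B-RafV600E), plated overnight at 37° C./5% CO2, were treated with compound dilutions for 2 h. Lysates were analysed by phospho-RSK1(Ser380) sandwich ELISA with absorbance at 450 nm. IC50 came from a sigmoidal variable-slope dose-response fit.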
# T1 sequence (P28482 whole entry): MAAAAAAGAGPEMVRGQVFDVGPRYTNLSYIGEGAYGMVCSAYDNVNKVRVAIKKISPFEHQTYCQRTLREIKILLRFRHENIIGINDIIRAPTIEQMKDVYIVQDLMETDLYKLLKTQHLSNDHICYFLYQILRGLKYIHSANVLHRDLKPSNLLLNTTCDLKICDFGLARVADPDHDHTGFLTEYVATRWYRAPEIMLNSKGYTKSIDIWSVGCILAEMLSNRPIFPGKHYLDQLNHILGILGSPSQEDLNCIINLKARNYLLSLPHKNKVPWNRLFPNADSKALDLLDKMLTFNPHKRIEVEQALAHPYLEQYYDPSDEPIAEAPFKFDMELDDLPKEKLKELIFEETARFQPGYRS
IC50 ([1]; HTRF),IC50 ([2]; HTRF),IC50 [3],IC50 [4],IC50 ([5]; phospho-RSK1(S380)),IC50 [5],SMILES,IC50 ([1]; HTRF biochemical assay),IC50 ([2]; HTRF biochemical assay)
50 to 100 nM,100 to 500 nM,,,,,"Cc1cnc(N[C@H]2CCOC2)nc1-n1cnc(C(=O)NC(C)(C)c2cccc(Cl)c2CO)c1 [Example 347, (S)-N-(2-(3-chloro-2-(hydroxymethyl)-phenyl)propan-2-yl)-1-(5-methyl-2-((tetrahydrofuran-3-yl)amino)pyrimidin-4-yl)-1H-imidazole-4-carboxamide]",,
,,,,,,"Cc1cnc(NC2CCOCC2)nc1-n1cnc(C(=O)N[C@H](CN)c2cccc(Cl)c2)c1 [Compound #298, (S)—N-(2-Amino-1-(3-chlorophenyl)ethyl)-1-(5-methyl-2-((tetrahydro-2H-pyran-4-yl)amino)pyrimidin-4-yl)-1H-imidazole-4-carboxamide hydrochloride salt]",≤ 50 nM,< 50 nM
,,> 2500 nM,> 2500 nM,,,"Cc1cnc(Nc2ccc3c(c2)OC(F)(F)O3)cc1-n1cnc(C(=O)NC(CO)c2ccccc2)c1 (stereo not shown) [Example 86, 1-(2-((2,2-difluoro-benzo[d][1,3]dioxol-5-yl)-amino)-5-methyl-pyridin-4-yl)-N-(2-hydroxy-1-phenyl-ethyl)-1H-imidazole-4-carboxamide]",50 to 100 nM,50 to 100 nM
,,500 to 2500 nM,250 to 500 nM,250 to 500 nM,,"Cc1cccc(C(CO)NC(=O)c2ccn(-c3nc(N[C@H]4CCOC4)ncc3C)c2)c1 (stereo partly drawn) [Example 187, N-(2-hydroxy-1-(m-tolyl)ethyl)-1-(5-methyl-2-(((S)-tetrahydrofuran-3-yl)amino)pyrimidin-4-yl)-1H-pyrrole-3-carboxamide]",,
,,> 2500 nM,> 2500 nM,500 to 2500 nM,,"Cc1cnc(NC(C)c2ccccc2)nc1-n1ccc(C(=O)NC(CO)c2ccccc2)c1 (stereo not shown) [Example 117, N-(2-hydroxy-1-phenyl-ethyl)-1-(5-methyl-2-((1-phenylethyl)amino)pyrimidin-4-yl)-1H-pyrrole-3-carboxamide]",,
,,> 2500 nM,> 2500 nM,500 to 2500 nM,,"Cc1cnc(Nc2ccc(F)cc2Cl)nc1-n1ccc(C(=O)NC(COC(=O)C(N)CC(C)C)c2ccccc2)c1 (stereo not shown) [Example 150, 2-(1-(2-((2-chloro-4-fluorophenyl)-amino)-5-methyl-pyrimidin-4-yl)-1H-pyrrole-3-carboxamido)-2-phenylethyl 2-amino-4-methyl-pentanoate]",,
,,250 to 500 nM,≤ 100 nM,500 to 2500 nM,,"Cc1cnc(NC2CCOCC2)nc1-n1cnc(C(=O)NCc2ccccc2CO)c1 [Example 287, N-(2-(hydroxymethyl)benzyl)-1-(5-methyl-2-((tetrahydro-2H-pyran-4-yl)amino)pyrimidin-4-yl)-1H-imidazole-4-carboxamide]",,
,,≤ 100 nM,≤ 100 nM,,≤ 100 nM,"CC(=O)OCc1c(Cl)cccc1CNC(=O)c1cn(-c2nc(NC3CCOCC3)ncc2C)cn1 [Example 340, 2-chloro-6-((1-(5-methyl-2-((tetrahydro-2H-pyran-4-yl)amino)pyrimidin-4-yl)-1H-imidazole-4-carboxamido)methyl)benzyl acetate]",,
,,≤ 100 nM,≤ 100 nM,100 to 250 nM,,"Cc1cnc(NC2CCOCC2)nc1-n1cnc(C(=O)N[C@H](CNCc2ccc[nH]2)c2cccc(Cl)c2)c1 [Example 306, (S)-N-(2-(((1H-pyrrol-2-yl)methyl)amino)-1-(3-chlorophenyl)ethyl)-1-(5-methyl-2-((tetrahydro-2H-pyran-4-yl)amino)pyrimidin-4-yl)-1H-imidazole-4-carboxamide]",,
≤ 50 nM,50 to 100 nM,,,,,"CCC(=O)OCc1c(Cl)cccc1CNC(=O)c1cn(-c2nc(N[C@H]3CCOC3)ncc2C)cn1 [Example 346, (S)-2-chloro-6-((1-(5-methyl-2-((tetrahydrofuran-3-yl)amino)pyrimidin-4-yl)-1H-imidazole-4-carboxamido)-methyl)benzyl-propionate]",,
,,250 to 500 nM,≤ 100 nM,100 to 250 nM,,"Cc1cnc(Nc2ccc(F)c(N3CCOCC3)c2)nc1-n1ccc(C(=O)NC(CO)c2cccc(Cl)c2)c1 (stereo not shown) [Example 175, N-(1-(3-chlorophenyl)-2-hydroxyethyl)-1-(2-((4-fluoro-3-morpholinophenyl)amino)-5-methylpyrimidin-4-yl)-1H-pyrrole-3-carboxamide]",,
,,> 2500 nM,500 to 2500 nM,100 to 250 nM,,"Cc1cnc(NC2CCOCC2)nc1-n1cnc(C(=O)NCc2nccs2)c1 [Example 281, 1-(5-methyl-2-((tetrahydro-2H-pyran-4-yl)amino)pyrimidin-4-yl)-N-(thiazol-2-ylmethyl)-1H-imidazole-4-carboxamide]",,
,,> 2500 nM,500 to 2500 nM,500 to 2500 nM,,"O=C(NC(CO)c1cccc(Cl)c1)c1ccn(-c2ccnc(Nc3ccc4c(c3)OC(F)(F)O4)n2)c1 (stereo not shown) [Example 176, N-(1-(3-chlorophenyl)-2-hydroxyethyl)-1-(2-((2,2-difluorobenzo[d][1,3]dioxol-5-yl)amino)pyrimidin-4-yl)-1H-pyrrole-3-carboxamide]",,
,,500 to 2500 nM,500 to 2500 nM,,≤ 100 nM,"Cc1cnc(N[C@H]2CCOC2)nc1-n1cnc(C(=O)NCc2cccc(Cl)c2C)c1 [Example 331, (S)-N-(3-chloro-2-methylbenzyl)-1-(5-methyl-2-((tetrahydrofuran-3-yl)amino)pyrimidin-4-yl)-1H-imidazole-4-carboxamide]",,
,,250 to 500 nM,500 to 2500 nM,500 to 2500 nM,,"Cc1cnc(Nc2ccc3c(c2)OCCC3)nc1-n1ccc(C(=O)NC(CO)c2ccccc2)c1 (stereo not shown) [Example 186, 1-(2-(chroman-7-ylamino)-5-methylpyrimidin-4-yl)-N-(2-hydroxy-1-phenylethyl)-1H-pyrrole-3-carboxamide]",,
,,> 2500 nM,500 to 2500 nM,100 to 250 nM,,"O=C(NC(CO)c1cccc(Cl)c1)c1cn(-c2ccnc(Nc3ccccc3)c2)cn1 (stereo not shown) [Cmpd 77, N-(1-(3-chloro-phenyl)-2-hydroxy-ethyl)-1-(2-(phenyl-amino)pyridin-4-yl)-1H-imidazole-4-carboxamide]",,
,,500 to 2500 nM,500 to 2500 nM,500 to 2500 nM,,"COc1ccc(Nc2ncc(C)c(-n3ccc(C(=O)NC(CO)c4ccccc4)c3)n2)cc1OCCN1CCN(C)CC1 (stereo not shown) [Example 148, N-(2-hydroxy-1-phenylethyl)-1-(2-((4-methoxy-3-(2-(4-methyl-piperazin-1-yl)ethoxy)-phenyl)amino)-5-methyl-pyrimidin-4-yl)-1H-pyrrole-3-carboxamide]",,
,,100 to 250 nM,≤ 100 nM,100 to 250 nM,,"Cc1cnc(Nc2ccc(F)cc2)nc1-n1cnc(C(=O)NC(CN)c2cccc(Cl)c2)c1 (stereo not shown) [Example 177, N-(2-amino-1-(3-chlorophenyl)ethyl)-1-(2-((4-fluorophenyl)amino)-5-methylpyrimidin-4-yl)-1H-imidazole-4-carboxamide]",,
,,> 2500 nM,> 2500 nM,> 2500 nM,,"CN(C(=O)Nc1cnn(-c2ccnc(NC3CC3)n2)c1)[C@H](CO)c1ccccc1 [Example 18, (S)-3-(1-(2-(cyclopropyl-amino)pyrimidin-4-yl)-1H-pyrazol-4-yl)-1-(2-hydroxy-1-phenylethyl)-1-methylurea]",,
,,100 to 250 nM,500 to 2500 nM,250 to 500 nM,,"COc1cc(Nc2ncc(C)c(-n3ccc(C(=O)NC(CO)c4ccccc4)c3)n2)ccc1F (stereo not shown) [Example 154, 1-(2-((4-fluoro-3-methoxy-phenyl)amino)-5-methyl-pyrimidin-4-yl)-N-(2-hydroxy-1-phenylethyl)-1H-pyrrole-3-carboxamide]",,
,,500 to 2500 nM,500 to 2500 nM,250 to 500 nM,,"COc1cc(F)ccc1Nc1ncc(C)c(-n2ccc(C(=O)NC(CO)c3cccc(Cl)c3)c2)n1 (stereo not shown) [Example 142, N-(1-(3-chloro-phenyl)-2-hydroxy-ethyl)-1-(2-((4-fluoro-2-methoxy-phenyl)amino)-5-methyl-pyrimidin-4-yl)-1H-pyrrole-3-carboxamide]",,

# — patent publication US11925629B2, “Heterocyclic inhibitors of ERK1 and ERK2 and their use in the treatment of cancer” (Asana Biosciences, LLC, priority 2015, dated 2024)
